# Data: US9963461B2, “Phillygenin ibuprofen ester, preparation method therefor, and application thereof” (priority 2014, dated 2018)
# Marks after values point to notes of the source that are not given here.
# What was measured:
# [1] = test system: beer yeast induced rat fever; experiment: Beer yeast induced rat fever; assay type: in vivo, Wistar rats; conditions: 100 mg/kg
# Experimental: Male Wistar rats were selected, weighing 180-200 g. Before the test, WSC-411P portable digital thermometer was used to measure the normal rectal temperature twice (with certain interval for each time), and the average value of the two measurements was taken as the normal body temperature of the rat. Then 70 rats with the body temperature between 36.5° C. and 38° C. were chosen to be randomly divided into 7 groups by weight: the model (0.5% carboxymethylcellulose) group, the 2.5, 5, and 10 mg/kg phillygenin ibuprofen ester groups, the positive drug paracetamol (100 mg/kg) group, the ibuprofen group (i.e. prodrug control group, 300 mg/kg), the phillygenin group (100 mg/kg), with 10 rats for each group. Each group of rats were subjected to back subcutaneous injection with 10% fresh beer yeast suspension of 10 ml/kg to induce heat. After administration of 10% fresh beer yeast suspension for 6.0 h, phillygenin ibuprofen ester and paracetamol were both subjected to intragastric administration, and the model group was intragastrically administrated with equal volume of 0.5% carboxymethylcellulose. Rectal temperature was measured after 1 h, 2 h, 3 h and 4 h of the administration respectively. Changes in the body temperature were observed and difference between the groups was compared by inter-group t test processing through antipyretic percentage.
# [2] = test system: rabbit fever induced by typhoid and paratyphoid vaccine; experiment: Rabbit fever induced by typhoid and paratyphoid vaccine; assay type: in vivo, Japanese white rabbits; conditions: 50 mg/kg
# Experimental: Japanese male big-ear white rabbits, weighing 1.5-2.0 kg. Before the test, WSC-411P portable digital thermometer was used to measure the normal rectal temperature twice (with certain interval for each time), and the average value was taken as the normal body temperature. Then 48 Japanese big-ear white rabbits with body temperature of 38-39.6° C. were selected and randomly divided into 8 groups by weight, namely: the blank control (normal saline) group, the model control (0.5% carboxymethylcellulose) group, the ibuprofen group (300 mg/kg), the phillygenin group (10 mg/kg), the 1.25, 2.5, and 5 mg/kg phillygenin ibuprofen ester groups and the positive drug paracetamol (50 mg/kg) group. The rabbits were fixed in a fixator. The blank control group was intravenously injected with normal saline of 1 ml/kg via the ear margin; The model control group and the drug groups were intravenously injected with typhoid and paratyphoid vaccines of 0.8 ml/kg via the ear margin. When the body temperature rise of the rabbits was greater than 1° C. (requiring about 1-1.5 h, which was restricted to 1 h in this test), the blank control group and the model group were administered intragastrically with 0.5% carboxymethycellulose of 1 ml/kg, and the drug groups were administered intragastrically with phillygenin ibuprofen ester and paracetamol. […]
# influenza virus [3] = assay type: in vivo, Kunming mice; conditions: lung suspensions, influenza virus infected mice; 58.5 mg/kg/d, 5 days
# parainfluenza virus [4] = assay type: in vivo, Kunming mice; conditions: lung suspensions, parainfluenza virus infected mice; 58.5 mg/kg/d, 5 days
# Enterovirus EV71 = experiment: Impact of the drugs on the virus-induced cytopathy (MTT); assay type: cell-based; conditions: EV71 100 TCID50, Vero cells, about the maximal non-cytotoxic concentration, 72 hours
# [5] = test system: Herpes Simplex Virus type I (HSV-1); experiment: as above; assay type: cell-based; conditions: HSV-I 100 TCID50, Vero cells, about the maximal non-cytotoxic concentration, 72 hours
# influenza virus [6] = experiment: as above; assay type: cell-based
# [7] = test system: coxsackie virus B3 (CVB3); experiment: as above; assay type: cell-based; conditions: CVB3 100 TCID50, Vero cells, about the maximal non-cytotoxic concentration, 72 hours
# [8] = test system: Coxsackie virus A16 (CoxA16); experiment: as above; assay type: cell-based; conditions: CoxA16 100 TCID50, Vero cells, about the maximal non-cytotoxic concentration, 72 hours
# [9] = test system: respiratory syncytial virus (RSV); experiment: as above; assay type: cell-based; conditions: RSV 100 TCID50, Vero cells, about the maximal non-cytotoxic concentration, 72 hours
# parainfluenza virus [10] = experiment: as above; assay type: cell-based; conditions: parainfluenza virus 100 TCID50, Vero cells, about the maximal non-cytotoxic concentration, 72 hours
# Adenovirus (AdV) = experiment: as above; assay type: cell-based; conditions: ADV 100 TCID50, Vero cells, about the maximal non-cytotoxic concentration, 72 hours
# [11] = test system: mice pain induced by acetic acid; experiment: Analgesic test, mice writhing induced by acetic acid; assay type: in vivo, Kunming mice; conditions: 200 mg/kg intragastric; within 15 min after 0.7% acetic acid
# Experimental: 72 Kunming mice were randomly divided into 6 groups, with 12 mice for each group. (1) the blank normal control group (i.e. saline group, […]); (2) positive drug aspirin group (200 mg/kg); (3) ibuprofen group (300 mg/kg); (4) high dose group of phillygenin ibuprofen ester (300 mg/kg); (5) medium dose group of phillygenin ibuprofen ester (150 mg/kg); (6) low dose group of phillygenin ibuprofen ester (75 mg/kg). […] The number of mice writhings within 15 min after administration was recorded. The number of writhings was taken as the evaluation index to evaluate the analgesic effect.
# [12] = test system: rat toe swelling induced by carrageenan; experiment: Rat toe swelling induced by carrageenan; assay type: in vivo, Wistar rats; conditions: 200 mg/kg sublingual intravenous injection
# Experimental: The test groups were administered by sublingual intravenous injection. Before the test, capillary magnification measurement method was used to measure the normal volume of the right hind foot of the rats in each group. To avoid errors, the measurement location was fixed and the operation was made by one person both before and after the administration. The average value of the two measurements was taken as the normal volume of the right hind foot of the rats before administration. […] The difference between the groups was compared by inter-group t test processing through the difference percentage (swelling ratio) of the paw volume before and after the induced rat inflammation.
# [13] = test system: sweat gland epithelial cells at the rat toe part; experiment: Sweat secretion of rat paw part (tissue morphology observation method); assay type: in vivo, Wistar rats; conditions: rat toe part; 35.0 mg/kg subcutaneous
# Text: This test was based on the mechanism that when rat sweat gland is excited, in addition to sweat secretion increase, the morphology of sweat gland epithelial cell is also changed. The number increase and expansion of empty cells of the sweat gland epithelial cells can be seen under the optical microscope. Such enlarged vacuole presents mitochondrial in sweat gland epithelial cells swelling, rupture, fusion and secretory vesicle enlargement under the electron microscope, and through the morphological observation of the sweat gland epithelial cell at the rat paw part, the secretory activity of the sweat gland can be known. In the test, 70 Wistar rats were selected, with equal male and female number, weighing 120-160 g. […] Besides that subcutaneous injection was used for the pilocarpine solution, intragastric administration was used for all the other groups.
# [14] = test system: sweat secretion of rat paw part; experiment: Sweat secretion of rat paw part (coloring method); assay type: in vivo, Wistar rats; conditions: 35.0 mg/kg subcutaneous; for Animal number of sweat points of level +: + = sweat area below about 10%; for Animal number of sweat points of level ++: ++ = sweat area about 11-40%; for Animal number of sweat points of level +++: +++ = sweat area about 41-70%; for Animal number of sweat points of level ++++: ++++ = sweat area over 71%; for Animal number of sweat points of level −: − = no sweat point
# Text: This test was designed to observe the change of sweat secretion based on the mechanism that sweat gland is distributed on the rat paw pads, and iodine and starch can have purple reaction when encountered with sweat. In the test, 350 Wistar rats were selected, with equal male and female number, weighing 120-150 g. […] The rats were placed in a self-made rat fixation bag, with the double hind limbs exposed. The dirts on the right paw was gently scrubbed clean with the cotton swab dipped with anhydrous ethanol. Besides that subcutaneous injection was used for the pilocarpine solution, intragastric administration was used for all the other groups. […] When the test was complete, statistical process was carried out according to the rank-sum test with two-sample comparison, in order to compare the difference between the groups.
# [15] = time after administration (min) 30
# [16] = time after administration (min) 60
# [17] = time after administration (min) 90
# [18] = time after administration (min) 120
# [19] = time after administration (min) 180
# [20] = after coating B liquid for 1 minute
# [21] = after coating B liquid for 5 minutes
# [22] = after coating B liquid for 10 minutes
# [23] = after coating B liquid for 15 minutes (Table 2-4)
# [24] = after coating B liquid for 15 minutes (Table 2-5)
compound,measurement,setting,value
CC(=O)Nc1ccc(O)cc1 [Paracetamol],Body temperature (° C.),[1]; 1 h after administration,38.66 ± 0.58 °C
same,antipyretic percentage (%),[1]; 1 h after administration,−2.07 ± 0.54 %
same,Body temperature (° C.),[1]; 2 h after administration,38.19 ± 0.59 °C
same,antipyretic percentage (%),[1]; 2 h after administration,−3.27 ± 0.77 %
same,Body temperature (° C.),[1]; 3 h after administration,37.98 ± 0.19 °C
same,antipyretic percentage (%),[1]; 3 h after administration,−3.80 ± 1.43 %
same,Body temperature (° C.),[1]; 4 h after administration,37.84 ± 0.32 °C
same,antipyretic percentage (%),[1]; 4 h after administration,−4.15 ± 1.59 %
same,Body temperature (° C.),[2]; [15],40.53 ± 0.68 °C
same,antipyretic percentage (%),[2]; [15],−1.14 ± 0.59 %
same,Body temperature (° C.),[2]; [16],40.10 ± 0.48 °C
same,antipyretic percentage (%),[2]; [16],−2.18 ± 0.16 %
same,Body temperature (° C.),[2]; [17],39.83 ± 0.57 °C
same,antipyretic percentage (%),[2]; [17],−2.83 ± 0.16 %
same,Body temperature (° C.),[2]; [18],39.72 ± 0.54 °C
same,antipyretic percentage (%),[2]; [18],−3.11 ± 0.29 %
same,Body temperature (° C.),[2]; [19],39.61 ± 0.48 °C
same,antipyretic percentage (%),[2]; [19],−3.38 ± 0.25 %
"NC(=O)c1ncn([C@@H]2O[C@H](CO)[C@@H](O)[C@H]2O)n1 [Ribavirin, ribavirin]",Hemagglutination titer (InX),influenza virus [3],21.91 ± 1.050
same,Hemagglutination titer Inhibitive rate (%),influenza virus [3],32.39%
same,Hemagglutination titer (InX),parainfluenza virus [4],23.22 ± 1.091
same,Hemagglutination titer Inhibitive rate (%),parainfluenza virus [4],24.53%
same,antiviral effective rate (ER %),Enterovirus EV71,4.25%
same,antiviral effective rate (ER %),[5],60.92* %
same,antiviral effective rate (ER %),influenza virus [6],57.49* %
same,antiviral effective rate (ER %),[7],13.44%
same,antiviral effective rate (ER %),[8],0.70%
same,antiviral effective rate (ER %),[9],50.08* %
same,antiviral effective rate (ER %),parainfluenza virus [10],81.56** %
same,antiviral effective rate (ER %),Adenovirus (AdV),0.43%
CC(=O)Oc1ccccc1C(=O)O [Aspirin],Writhing times,[11],5.0*
same,Swelling ratio (%),[12]; 30 min,0.120 ± 0.138 %
same,Swelling ratio (%),[12]; 60 min,0.168 ± 0.172 %
same,Swelling ratio (%),[12]; 120 min,0.215 ± 0.178 %
same,Swelling ratio (%),[12]; 180 min,0.343 ± 0.337 %
same,Swelling ratio (%),[12]; 240 min,0.470 ± 0.289 %
same,Swelling ratio (%),[12]; 300 min,0.690 ± 0.369%
same,Swelling ratio (%),[12]; 360 min,0.525 ± 0.338 %
CC[C@@H]1C(=O)OC[C@@H]1Cc1cncn1C [Pilocarpine],Number of sweat glands of vacuole,[13],57
same,Void fraction (%),[13],27.40*** %
same,Animal number of sweat points of level +,[14]; [20],1
same,Animal number of sweat points of level ++,[14]; [20],3
same,Animal number of sweat points of level +++,[14]; [20],1
same,Animal number of sweat points of level ++++,[14]; [20],5
same,Animal number of sweat points of level −,[14]; [20],0
same,Animal number of sweat points of level +,[14]; [21],1
same,Animal number of sweat points of level ++,[14]; [21],2
same,Animal number of sweat points of level +++,[14]; [21],1
same,Animal number of sweat points of level ++++,[14]; [21],6
same,Animal number of sweat points of level −,[14]; [21],0
same,Animal number of sweat points of level +,[14]; [22],1
same,Animal number of sweat points of level ++,[14]; [22],2
same,Animal number of sweat points of level +++,[14]; [22],1
same,Animal number of sweat points of level ++++,[14]; [22],6
same,Animal number of sweat points of level −,[14]; [22],0
same,Animal number of sweat points of level +,[14]; [23],0
same,Animal number of sweat points of level ++,[14]; [23],2
same,Animal number of sweat points of level +++,[14]; [23],1
same,Animal number of sweat points of level ++++,[14]; [23],6
same,Animal number of sweat points of level −,[14]; [23],0
same,Animal number of sweat points of level +,[14]; [24],0
same,Animal number of sweat points of level ++,[14]; [24],2
same,Animal number of sweat points of level +++,[14]; [24],1
same,Animal number of sweat points of level ++++,[14]; [24],6
same,Animal number of sweat points of level −,[14]; [24],0
